Results from patent publication US7109380B2, “Cyclopentenedione antifungal compounds and methods for their use” (The University of Mississippi, priority 2004, dated 2006).
Like-named read-outs stand apart in the source and are kept apart here.

How the values were obtained:
Experiment in all cases: Lethality bioassay on germinating conidia
Format in all cases: cell-based
[1] = test system: Germinating Conidia of Fusarium moniliforme; details: for viability at 5 µM / viability at 10 µM / viability at 15 µM / viability at 20 µM / viability at 25 µM / viability at 30 µM: Fusarium verticillioides, read-out: Percent of Control Mean (viable colonies, Fusarium moniliforme)
Experimental: (§1) Pathogen production. Stock slant isolates of Aspergillus flavus, Fusarium oxysporum, and Fusarium moniliforme were grown on potato dextrose agar (Difco, Detroit, Mich.) slants for 7 days at room temperature (22° C.).
(§2) Inoculum preparation. Prior to a bioassay, 4 ml of 1% potato dextrose broth (PDB, Difco, Detroit, Mich.), pH 4.86, was added to a stock culture slant. The conidia were suspended by gentle agitation using the pipette tip and the population determined with the use of a hemocytometer. The conidia were then diluted to a 10^4 conidia/ml concentration and incubated for 8 hrs at 22° C. to obtain germinating conidia that were used in the bioassays.
(§3) Experimental design of lethality bioassays to determine activity of coruscanone A. Coruscanone A was diluted in 100% methanol with a further dilution in PDB to achieve a stock concentration of 0.032 μg/μl. Test mixtures of germinating conidia and compound 67 were made in sterile 500 μl Eppendorf (Brinkman, Westbury, N.Y.) microcentrifuge tubes. Final test concentrations of compound 67 were 0, 5, 10, 15, 20, 25, and 30 μM in a final volume of 250 μl (0.0635 μg/μl=1.0 μM/250 μl). After an incubation of 30 min, 16 hours and 24 hours at 22° C., aliquots (50 μl) of the each sample were spread on each of 4 PDA plates. The plates were incubated at 22° C. for 2 days and the developed, viable colonies were enumerated. Separate bioassays were also set up at the same time as that with the 30 min incubation period but incubated at 22° C. for 16 and 24 hours, respectively. These samples were spread as previously described and the developing, viable colonies enumerated. Bioassays were performed on three separate occasions per fungus (n=12). Statistical analysis was performed using SigmaPlot 9.0 (p<0.05).

[2] = test system: Germinating Conidia of Fusarium oxysporum; details: for viability at 5 µM / viability at 10 µM / viability at 15 µM / viability at 20 µM / viability at 25 µM / viability at 30 µM: read-out: Percent of Control Mean (viable colonies, Fusarium oxysporum)
Experimental: as §1, §2, §3

[3] = test system: Germinating conidia of Aspergillus flavus; details: for viability at 5 µM / viability at 10 µM / viability at 15 µM / viability at 20 µM / viability at 25 µM / viability at 30 µM: read-out: Percent of Control Mean (viable colonies, Aspergillus flavus)
Experimental: as §1, §2, §3

Compound: COC(/C=C/c1ccccc1)=C1\C(=O)C=C(C)C1=O [Compound 1, coruscanone A]
- Concentration at and above which significant and increasing lethality was observed ([1]; Fusarium moniliforme, 16 and 24 hours of incubation): ≥ 5 µM
- Lethality to germinating conidia (in words) ([1]; Fusarium moniliforme, 30 min incubation): not significantly lethal
- viability at 5 µM ([1]; 0.5 h): 106%
- viability at 10 µM ([1]; 0.5 h): 85.4%
- viability at 15 µM ([1]; 0.5 h): 114%
- viability at 20 µM ([1]; 0.5 h): 102%
- viability at 25 µM ([1]; 0.5 h): 99.7%
- viability at 30 µM ([1]; 0.5 h): 90.8%
- viability at 5 µM ([1]; 16 h): 12.5%
- viability at 10 µM ([1]; 16 h): 6.1%
- viability at 15 µM ([1]; 16 h): 5.3%
- viability at 20 µM ([1]; 16 h): 2.7%
- viability at 25 µM ([1]; 16 h): 2.1%
- viability at 30 µM ([1]; 16 h): 1.6%
- viability at 5 µM ([1]; 24 h): 38.6%
- viability at 10 µM ([1]; 24 h): 7.4%
- viability at 15 µM ([1]; 24 h): 4.2%
- viability at 20 µM ([1]; 24 h): 3.9%
- viability at 25 µM ([1]; 24 h): 2.2%
- viability at 30 µM ([1]; 24 h): 1.3%
- viability at 5 µM ([2]; 0.5 h): 110%
- viability at 10 µM ([2]; 0.5 h): 102%
- viability at 15 µM ([2]; 0.5 h): 110%
- viability at 20 µM ([2]; 0.5 h): 106%
- viability at 25 µM ([2]; 0.5 h): 116%
- viability at 30 µM ([2]; 0.5 h): 113%
- viability at 5 µM ([2]; 16 h): 104%
- viability at 10 µM ([2]; 16 h): 79.7%
- viability at 15 µM ([2]; 16 h): 41.2%
- viability at 20 µM ([2]; 16 h): 30.8%
- viability at 25 µM ([2]; 16 h): 14.5%
- viability at 30 µM ([2]; 16 h): 7.7%
- Concentration at which significant and increasing lethality begins ([2]; 16 hour incubation): ≥ 15 µM
- viability at 5 µM ([2]; 24 h): 80.2%
- viability at 10 µM ([2]; 24 h): 56.7%
- viability at 15 µM ([2]; 24 h): 35.2%
- viability at 20 µM ([2]; 24 h): 19.4%
- viability at 25 µM ([2]; 24 h): 10.9%
- viability at 30 µM ([2]; 24 h): 4.3%
- Concentration at and above which significantly and increasingly lethal ([2]; 24 hour incubation): ≥ 10 µM
- Lethality to germinating conidia (in words) ([2]; any of the tested concentrations (time not given)): not lethal
- viability at 5 µM ([3]; 0.5 h): 109%
- viability at 10 µM ([3]; 0.5 h): 86.6%
- viability at 15 µM ([3]; 0.5 h): 98%
- viability at 20 µM ([3]; 0.5 h): 78.9%
- viability at 25 µM ([3]; 0.5 h): 70%
- viability at 30 µM ([3]; 0.5 h): 66.5%
- viability at 5 µM ([3]; 16 h): 75.2%
- viability at 10 µM ([3]; 16 h): 76.4%
- viability at 15 µM ([3]; 16 h): 45.4%
- viability at 20 µM ([3]; 16 h): 39.1%
- viability at 25 µM ([3]; 16 h): 30.5%
- viability at 30 µM ([3]; 16 h): 19.5%
- viability at 5 µM ([3]; 24 h): 113%
- viability at 10 µM ([3]; 24 h): 71.8%
- viability at 15 µM ([3]; 24 h): 64.8%
- viability at 20 µM ([3]; 24 h): 55.7%
- viability at 25 µM ([3]; 24 h): 40.6%
- viability at 30 µM ([3]; 24 h): 28.7%
- Lethality to germinating conidia (in words) ([3]; after 24 hours of incubation, any tested concentration): no longer significantly lethal
- Lethality to germinating conidia (in words) ([3]; incubated 30 min): not lethal
